# Measurements as given in patent EP4559898A1, “NOVEL IONIZABLE CATIONIC LIPIDS CONTAINING THIOETHER LINKAGE” (AldexChem Kft., priority 2023, dated 2025).
# Legend:
# [1] = Size, PDI and Zeta potential of LNPs by dynamic light scattering; assay type: physicochemical; details: LNP formulated with tested lipid, diluted in 1x PBS pH 7.4; for Size: DOTAP, DOPE, Resveratrol, DSPE-PEG and mRNA, dialyzed; for Size / PDI: DLS
# Method: • 1. If needed, prepare stock solutions by solving known amounts of lipid powder into an appropriate solvent. The recommended solvent is ethanol and the recommended concentration is typically in the range 10-50 mM. Higher concentrations are preferred to allow flexibility on mRNA-LNP concentration. • 2. Remove the lipid stock solutions from the -20°C freezer. For long-term storage, -80°C is used. • 3. Check the vials for precipitation, DOPE (CAS# 4004-05-1) (20 mM) and DSPE-PEG (CAS# 474922-26-4) (5mM) may need a 5-30 minute incubation step at 37°C with intermittent vortexing to resuspend all contents. […] As a last resort, lipids may be heated to 50°C to resuspend, time should be kept as short as possible to prevent oxidation or other modifying or degradative processes. • 4. Mix the lipids by vortexing for 2 minutes. • 5. […] Cooling the solution prevent excessive evaporation of ethanol or similar solvents upon opening. • 6. Meanwhile, thaw the RNA samples, including the latest SecNLuc control, by inserting the frozen tube in a room temperature aluminium block. • 7. Prepare for each LNP-formulation with identical mRNA component, an RNA master mix according to Table 1 below in a fresh tube. Use of a master mix allows more precise comparison of lipid formulations relative to each other. Split the master mix over a number of fresh tubes equal to the number of samples + controls. Each tube contains 375 µl of mRNA in 10 mM Citrate pH 4.0. • 8. Prepare for each LNP formulation with identical lipid composition a Lipid master mix according to Table 1 below in a fresh tube, exclude the lipid of interest. Use of a master mix allows more precise comparison of the novel ionizable lipid relative to each other. Split the master mix over a number of fresh tubes equal to the number of samples + controls. Each tube contains 65.5 µl of lipid master mix. • 9. Add the ionizable lipid of interest to the equally divide lipid master mix. Mix well by pipetting up and down. Label the tube according to the ionizable lipid used. • 10. Power on the L1 FM (L1 Formulation Machine uses 2 high-speed syringe pumps to mix lipids in organic solvents with mRNA in acidic aqeuous solution to generate well-defined LNPs. The microfluidic mixing chip involves a dean-type structure performing the high-efficiency mixing at a total flow rate (TFR) of around 12ml/min at a 3:1 mixing ratio) and allow it to do a calibration of motor positions. Table 1: Lipid formulation solution
# • 18. Fill a fresh syringe (C) through a blunt 18G stainless steel needle with the previously prepared RNA mixture of step 6. The volume should be approximately 85% of total formulation volume + 25 µl (dead-volume). Make sure to remove all air bubbles by tapping. • 19. Fill a fresh syringe (D) through a blunt 18G stainless steel needle with the Lipid master mix. The volume should be approximately […] of total formulation volume + 25 µl (dead-volume). Again, Make sure to remove all bubbles. • 20. Attach the syringes in the correct orientation, […] • 21. Load the 'Receiving station' with appropriate sized collection containers (2 ml Eppendorf tubes). • 22. Press the microfluidic chip to the back of the machine with your thumb and hold, press the 'Button 1' (40 µg). The L1 FM pushes the total volume from the syringes in a perfect 3:1 (mRNA aqueous: lipid in EtOH) ratio through the microfluidic mixer chip with a total flow-rate of […] (Total flow rate (TFR)). • 23. Remove the sample tube from the 'Receiving station' and label the tube accordingly. • 24. Reset the machine to prepare with the next formulation.
# • 25. Transfer the individual formulations to 100 kda MWCO, SpectraPor Biotech dialysis tubing, and close with designated clamps. • 26. Submerge the dialysis bags in beakers filled with 1x Phosphate-buffered saline (PBS buffer, pH 7.4, Gibco cat# 202212-019), stir at 230 RPM at room temperature. • 27. […]
# HeLa = assay: Transfection efficiency with Luciferase-mRNA (SecNLuc), Nano-Glo assay; assay type: cell-based; details: 24 hours, luminescence (Nano-Glo); for Transfection 10 ng mRNA: 10 ng SecNLuc mRNA/well; for Transfection 50 ng mRNA: 50 ng SecNLuc mRNA/well; for Transfection 100 ng mRNA: 100 ng SecNLuc mRNA/well
# Method: • 1. Prepare mRNA solution by adding 100 ng mRNA (SecNLuc, #P009024, RiboPro) to 5 µl Opti-MEM • multiply by number of wells, include different concentrations and add 10% extra • a standard set-up we use is 100 ng - 50 ng - 10 ng mRNA/well in triplicate, which would need […] mRNA (includes 10% extra)
# • 2. (If applicable) Prepare different concentrations in Opti-MEM (for instance 100/50/10 ng). • 3. Add 10 µl to each well and mix carefully by pipetting. • 4. Mix by swirling the plate horizontally at modest speed. Reverse in direction 3 times. • 5. Incubate for 24 hours (incubator).
# This protocol is applied to measure luciferase activity for secreted NanoLuc and is based on the protocol by Promega (Nano-Glo® Luciferase Assay System #N1110-1150). The protocol is designed for a 384-wells plate, but volumes can be changed accordingly for other plates.
# • 1. Plate cells (HeLa) in 96-well plate, grow until 80% confluent and transfect with SecNanoLuc mRNA and incubate for the desired period (24h). • 2. After incubation, the translated protein is accumulated in the medium. Transfer medium to a new plate or tubes . • 3. Transfer 12 µl of each sample to a black-walled, clear-bottom 384-well plate Black-walled plates are important to prevent shine-through of luminescence from other wells; alternatively, multiple wells between samples can be left empty. • 4. Set-up plate reader • 5. Prepare the desired amount of Nano-Gio® Luciferase Assay Reagent by combining one volume of Nano-Glo® Luciferase Assay Substrate with 50 volumes of Nano-Glo® Luciferase Assay Buffer: • a. composition: 100 mM MES pH 6; 1 mM EDTA; 0.5% […]; 150 mM KCl; 1 mM DTT; 35 mM Thiourea; • b. briefly spin tubes containing substrate in a microcentrifuge before use. • 6. Add and mix (by pipetting) 12 µl Nano-Glo® Luciferase Assay Reagent per well • Wait approximately 3 minutes before measuring luminescence. The luminescence intensity will decay gradually, with a signal half-life of approximately 120 minutes at room temperature. • 7. Measure luminescence in plate reader using standard protocol luciferase (this includes mixing sample in plate reader)
SMILES,Size [1],Zeta potential [1],PDI [1],Transfection 10 ng mRNA (HeLa),Transfection 50 ng mRNA (HeLa),Transfection 100 ng mRNA (HeLa)
"CCCCCCCCC(SCCCCC)C(=O)OCCCCCCN(CCCCO)CCCCCCOC(=O)C(CCCCCCCC)SCCCCC (stereo not drawn) [Example 2, ((4-hydroxybutyl)azanediyl)bis(hexane-6,1-diyl) bis(2-(pentylthio)decanoate)]","188,2 nm","-11,48 mV","0,136","2,40E+06","1,60E+07","1,39E+07"
"CCCCCCCCCCSC(CCCC)C(=O)OCCCCCCN(CCCCO)CCCCCCOC(=O)C(CCCC)SCCCCCCCCCC (stereo not drawn) [Example 1, ((4-hydroxybutyl)azanediyl)bis(hexane-6,1-diyl) bis(2-(decylthio)hexanoate)]","226,7 nm","-10,74 mV","0,223","3,81E+06","1,83E+07","1,69E+07"
"CCCCCCCCC(SCCCCCCC)C(=O)OCCCCCCN(CCCCO)CCCCCCOC(=O)C(CCCCCCCC)SCCCCCCC (stereo not drawn) [Example 6, ((4-hydroxybutyl)azanediyl)bis(hexane-6,1-diyl) bis(2-(heptylthio)decanoate)]","126,0 nm","-11,48 mV","0,013","3,47E+06","1,83E+07","2,52E+07"
"CCCCCCCCCCSC(CCCCCCCC)C(=O)OCCCCCCN(CCCCO)CCCCCCOC(=O)C(CCCCCCCC)SCCCCCCCCCC (stereo not drawn) [Example 7, ((4-hydroxybutyl)azanediyl)bis(hexane-6,1-diyl) bis(2-(decylthio)decanoate)]","152,7 nm","-15,85 mV","0,022","1,62E+06","1,47E+07","2,01E+07"
"CCCCCCCCC(CCCCCC)C(=O)OCCCCCCN(CCCCO)CCCCCCOC(=O)C(CCCCCC)CCCCCCCC (stereo not drawn) [ALC-0315 ref., reference compound]","131,9 nm","-12,32 mV","0,007","3,21E+06",1.47E+07,"1,04E+07"
"CCCCCCCCCCSC(CCCC)C(=O)OCCCCCCN(CCCCCCOC(=O)C(CCCC)SCCCCCCCCCC)CCC1CCCN1C (stereo not drawn) [Example 5, ((2-(1-methylpyrrolidin-2-yl)ethyl)azanediyl)bis(hexane-6,1-diyl) bis(2-(decylthio)hexanoate)]","291,8 nm","-9,117 mV","0,169","4,17E+05","3,34E+06","6,52E+06"
"CCCCCCCCCCSC(CCCC)C(=O)OCCCCCCCCN(CCCCO)CCCCCCCCOC(=O)C(CCCC)SCCCCCCCCCC (stereo not drawn) [Example 3, ((4-hydroxybutyl)azanediyl)bis(octane-8,1-diyl) bis(2-(decylthio)hexanoate)]","185,7 nm","-9,667 mV","0,122","9,69E+05","1,02E+07","1,37E+07"
"CCCCCCCCCCSC(CCCC)C(=O)OCCCCCCN(CCO)CCCCCCOC(=O)C(CCCC)SCCCCCCCCCC (stereo not drawn) [Example 4, ((2-hydroxyethyl)azanediyl)bis(hexane-6,1-diyl) bis(2-(decylthio)hexanoate)]","149,7 nm","-12,66 mV","0,071","2,53E+06","1,23E+07","8,17E+06"
"CCCCCCCCCCSC(CCCCCC)C(=O)OCCCCCCN(CCCCO)CCCCCCOC(=O)C(CCCCCC)SCCCCCCCCCC (stereo not drawn) [Example 8, ((4-hydroxybutyl)azanediyl)bis(hexane-6,1-diyl) bis(2-(decylthio)octanoate)]","153,5 nm","-14,32 mV","0,038","2,80E+06","1,36E+07","1,11E+07"
"CCCCCCCCCCCCCCSCC(=O)OCCCCCCN(CCCCO)CCCCCCOC(=O)CSCCCCCCCCCCCCCC [Example 10, ((4-hydroxybutyl)azanediyl)bis(hexane-6,1-diyl) bis(2-(tetradecylthio)acetate)]","203,9 nm","-9,983 mV","0,014","2,92E+05","3,57E+06","1,10E+07"
"CCCCCCCSC(CCCCCC)C(=O)OCCCCCCN(CCCCO)CCCCCCOC(=O)C(CCCCCC)SCCCCCCC (stereo not drawn) [Example 9, ((4-hydroxybutyl)azanediyl)bis(hexane-6,1-diyl) bis(2-(heptylthio)octanoate)]","167,3 nm","-13,37 mV","0,144","2,79E+06","1,36E+07","1,43E+07"
